Type in all cases: cell-based, human
Data set [1] deals with MCF-7 cells. The data set is described as follows: senescence-associated β-galactosidase (SA-β-gal) positive cells. The conditions noted are these: 7-day treatment (FIG. 3 legend: 8 days); concentrations as in FIG. 2. From the text: The bars represent percentages of SA-β-gal+ cells after 8 days of treatment with the indicated compounds (in triplicate). The compounds were used at the same concentrations as in FIG. 2.
(§1) To test this, we have analyzed the effects of different compounds on the growth of MCF-7 cells, as measured by the cell number after 7 days exposure to the compounds (FIG. 2) and on the fraction of cells expressing the senescence-associated β-galactosidase activity (SA-β-gal), a marker of senescence, after 7-day treatment with the compounds (FIG. 3).

Data set [2] deals with MCF-7 cells. The data set is described as follows: MCF-7 cell growth, cell number after 7 days. The conditions noted are these: 100 nM RA, LGD1550, LGD1268, 10 μM LG100815, LG101208. The method, then:
The bars represent cell number after 7 days of culture with the addition of DMSO (control), 100 nM RA, 100 nM RAR agonist LGD1550, 100 nM RXR agonist LGD1268, 10 μM RAR antagonist LG100815, and 10 μM RXR antagonist LG101208. Experiments were done in triplicate, and the results are expressed relative to the average of the control.
as §1

The test system of data set [3] is retinoid-inducible genes EPLIN, UBD, IGFBP3, TGFB1 and TRIM31 in MCF-7 cells (subline MCF-7 3′SS6). In words: real-time RT-PCR (QPCR) of retinoid-inducible gene expression, 2 days treatment. The conditions noted are these: for Fold induction EPLIN / Fold induction IGFBP3 / Fold induction TGFBI / Fold induction TRIM31 / Fold induction UBD / fold induction at 0.1 µM: 2 days, MCF-7; for fold induction at 0.1 µM: Homo sapiens, MCF7, 48 h. The source says:
The following compounds were obtained from Ligand Pharmaceuticals (San Diego, Calif.). LGD1550 is a pan-RAR agonist. LGD1268 is a pan-RXR agonist. LG100815 is a pan-RAR antagonist. LG101208 is a pan-RXR antagonist. The LG100815 compound is a specific RAR antagonist that binds to RAR, but fails to activate its Retinoic Acid Responsive Element (RARE)-dependent transcription transactivation function (see Lee et al, Mol. Cell Biol. 19: 1973-1980 (1999)). Also used was all-trans retinoic acid (RA), the most commonly used RAR agonist. To determine how these compounds affect the expression of retinoid-inducible growth inhibitory genes EPLIN, UBD, IGFBP3 and TGFB1, as well as TRIM31 gene that contains a putative RARE element in its promoter, MCF-7 cells (subline MCF-7 3′SS6) were treated with individual compounds or their combinations for 2 days, and RNA was extracted by standard procedures. In the initial assays, gene expression was analyzed by semi-quantitative reverse transcription-PCR (RT-PCR), as described in Dokmanovic et al., Cancer Biology & Therapy 1:24-27 (2002). In subsequent assays, the initial results were confirmed, expanded and quantitated by real-time RT-PCR (QPCR), using Applied BioSystems 7900HT real-time PCR instrument. β-actin was used as a normalization standard.
cDNA was prepared by reverse transcription with random primer using 4 μg total RNA. 5 μl SYBR Green PCR Master Mix (Applied Biosystems) was mixed with […] cDNA and 0.8 pmol of gene-specific primers and brought up to 10 μl with ultra pure H2O in 384-well optical plates. For amplification, reaction mixtures were heated for 2 min at 50° C. and 10 min at 95° C., followed by 40 cycles of two-step PCR consisting of 15 sec at 95° C. and 1 min at 60° C., to construct dissociation curves and verify that single PCR products were obtained. PCR products were also analyzed by gel electrophoresis to confirm that a single product of the expected size was amplified. […] The comparative CT method for relative quantitation of gene expression described by Applied Biosystems was used to determine expression levels for target genes. Experiments were carried out in triplicate for each data point. Sequence Detection Systems software version 2.1 (Applied Biosystems) and Microsoft Excel were used for data analysis.
A general note: Real-time PCR tracks product formation cycle by cycle.

Data set [4] relates to DR5 RARE-containing promoter in MCF-7 cells. In words: DR5-luciferase transient transfection assay (RARE-dependent transcription). The settings on record: 100 nM, 24 hrs. The method, then: The assays were carried out in triplicate. RA is all-trans retinoic acid. LGD1550 is a pan-RAR agonist. LG100815 is a pan-RAR antagonist.
To confirm the ability of LG100815 to antagonize RARE-dependent induction of transcription analysis of firefly luciferase expression from a RARE-containing artificial promoter DR5 (Stratagene, catalog number 240119) was performed. Cells were plated to the density of 3×10^5 in P60 24 hrs before transient transfection. DR5 reporter plasmid (4 μg) was mixed with the SV40-driven-Renilla luciferase control plasmid (0.04 μg) and transfected using Lipofectamine Plus (Life Technologies/Invitrogen, Carlsbad, Calif.) as described by the manufacturer. 3 hrs after transfection, cells were rinsed three times with PBS, trypsinized and replated in a 12-well plate to the density of 5×10^4 cells per well. Retinoid agonists and antagonists were added 48 hrs later, and the luciferase assay was performed after another 24 hrs.

Entries after “also recorded” stand apart in the source; their conditions may differ. Like-named read-outs stand apart in the source and are kept apart here.

In the case of `Cc1cc2c(cc1C1(c3ccc(C(=O)O)cn3)CC1)C(C)(C)CCC2(C)C` [LGD1268], the “induction of senescent phenotype (SA-β-gal+ cells)” value in the data set on MCF-7 cells [1] was “did not induce the senescent phenotype”. The “effect on MCF-7 cell growth (cell number)” value in the data set with MCF-7 cells [2] is “did not inhibit cell growth; also recorded: modest but reproducible increase in cell growth”. Moreover, in data set [3] (100 nM), the “Fold induction EPLIN” value amounted to 1.2 ± 0.2 fold, the “Fold induction IGFBP3” value is given as 1.2 ± 0.5 fold, the “Fold induction TGFBI” value came to 1.9 ± 1.1 fold and the “Fold induction TRIM31” value amounted to 1.3 ± 0.4 fold. For the same compound, the “Fold induction UBD” value in data set [3] (100 nM) is reported as 1.0 ± 0.1 fold. Besides, in data set [3] (1 μM), the “Fold induction EPLIN” value is given as 1.0 ± 0.1 fold, the “Fold induction IGFBP3” value worked out at 0.9 ± 1.1 fold, the “Fold induction TGFBI” value worked out at 2.2 ± 1.0 fold and the “Fold induction TRIM31” value came out at 1.4 ± 0.7 fold. For the same compound, the “Fold induction UBD” value in data set [3] (1 μM) was determined as 0.8 ± 0.2 fold. In data set [3] (10 μM), the “Fold induction EPLIN” value came out at 1.4 ± 0.2 fold, the “Fold induction IGFBP3” value is reported as 1.2 ± 0.4 fold, the “Fold induction TGFBI” value amounted to 2.4 ± 0.3 fold and the “Fold induction TRIM31” value came out at 3.8 ± 0.7 fold. Also, the “Fold induction UBD” value in data set [3] (10 μM) is given as 1.0 ± 0.2 fold. Besides, the “effect on expression of the five genes (IGFBP3, EPLIN, UBD, TGFB1, TRIM31)” value in data set [3] (summary of Table 2, MCF-7) was “induced only one of five genes (TGFB1)”.

Regarding `CC1=C(/C=C/C(C)=C/C=C/C(C)=C/C(=O)O)C(C)(C)CCC1` [RA, all-trans retinoic acid], the “ratio of the fold-induction of TGFB1 relative to TRIM31” value in data set [3] (100 nM) amounted to 0.19. Besides, the fold induction at 0.1 µM in data set [3] (100 nM, read-out: Fold induction EPLIN) is 3.1 ± 0.7; in data set [3] (100 nM, read-out: Fold induction IGFBP3), 2.5 ± 0.5; in data set [3] (100 nM, read-out: Fold induction TGFBI), 6.5 ± 1.4; in data set [3] (100 nM, read-out: Fold induction TRIM31) it was 34.4 ± 3.9; in data set [3] (100 nM, read-out: Fold induction UBD), 8.5 ± 2.8. Moreover, the “induction of luciferase expression from DR5 RARE-containing promoter” value in data set [4] was “approximately 50 fold”.
